Experiments:
[1] = Body weight during 28-day oral supplementation; format: in vivo, Swiss Albino mice; conditions: mean ± SD, n = 8 mice
Protocol: (§1) Forty 8-week-old male Swiss Albino mice were housed in an animal room at a constant temperature (22±3° C.) and humidity (30%-70%) under a 12:12 h light-dark cycle with standard laboratory diet (Purina 5L79, Rat and Mouse 18% protein; PMI Nutrition International, Brentwood, Mo., USA). Distilled water was provided ad libitum. All animal experiments were reviewed and approved by the Institutional Animal Ethical Committee (IAEC) of Radiant Research Services Pvt. Ltd (Bangalore, India). All research was conducted in accordance with the guidelines of the committee for the purpose of control and supervision of experiments on animals (CPCSEA Registration Number-1803/PO/RcBi/S/2015/CPCSEA).
(§2) After one week of acclimation, the animals were randomly divided by body weight into five groups (n=8 per group in each test) for oral treatment once a day, at approximately same time each day (±1 hour), for 28 consecutive days: (1) vehicle control; (2) paraxanthine (3) L-theanine; (4) alpha-GPC; and (5) taurine. The dose administered to the mice was calculated using US Food and Drug Administration for human equivalence doses (HED), assuming a human weight of 60 kg. The following HED were used in this study: 100 mg paraxanthine, (ENFINITY™, Ingenious Ingredients, L.P Lewisville, Tex., USA; mouse dose: 20.5 mg/kg bw/day); 200 mg alpha-GPC mg (YangLing Daily Health Bio-Engineering Technology Co., Ltd; mouse dose: 41.09 mg/kg bw), 50 mg L-theanine (Hangzhou Qinyuan Natural Plant High-tech Co., Ltd; mouse dose: 10.28 mg/kg bw), and 500 mg taurine (Jiangyin Huachang Food Additive Co., Ltd; mouse dose: 102.75 mg/kg bw). 0.5% Carboxy Methyl Cellulose sodium was used as vehicle and the test item formulations were prepared daily. Dosing was conducted via oral gavage using disposable polypropylene syringes with sterilized stainless steel gavage tubes. The food intake and water consumption were monitored daily, and BW was recorded weekly. The last dose on day 28 was given 1 hour prior to testing.

[2] = Feed consumption during 28-day oral supplementation; format: in vivo, Swiss Albino mice; conditions: mean ± SD, n = 8 mice
Protocol: as §1, §2

male Swiss Albino mice [3] = assay: Forelimb grip strength test; format: in vivo; conditions: for Baseline forelimb grip strength: day 0 baseline, time holding steel bar, mean of three trials; for increase in forelimb grip strength compared to control: day 28, one hour after oral treatment, vs vehicle control
Protocol: After one week of acclimation, the animals were randomly divided by body weight into five groups (n=8 per group in each test) for oral treatment once a day, at approximately same time each day (±1 hour), for 28 consecutive days: (1) vehicle control; (2) paraxanthine (3) L-theanine; […] The dose administered to the mice was calculated using US Food and Drug Administration for human equivalence doses (HED), assuming a human weight of 60 kg. […] Dosing was conducted via oral gavage using disposable polypropylene syringes with sterilized stainless steel gavage tubes. The food intake and water consumption were monitored daily, and BW was recorded weekly. The last dose on day 28 was given 1 hour prior to testing. The forelimb grip strength was measured on day 0 and day 28 by using a stainless-steel grill to assess muscle strength (Orchid Scientific & Innovative India Pvt Ltd, India). Grip strength was measured one hour after treatment. Briefly, each mouse was placed on a grill chamber and the steel bar is inverted; grip strength is measured by recording the time each animal holds the steel bar. The maximum time for each trial was six minutes. Each animal performed three independent trials separated by six minutes intervals and the mean of the three trials was calculated.

male Swiss Albino mice [4] = assay: Treadmill endurance test; format: in vivo; conditions: for Distance traveled on treadmill / increase in distance traveled during treadmill exercise compared to control: after 28 days of supplementation; for Distance traveled on treadmill: run until exhaustion, n=8; for Distance traveled on treadmill / Baseline treadmill performance (distance): mean ± SD; for increase in distance traveled during treadmill exercise compared to control: vs vehicle control
Protocol: (2) paraxanthine (3) L-theanine; […] The dose administered to the mice was calculated using US Food and Drug Administration for human equivalence doses (HED), assuming a human weight of 60 kg. […] Dosing was conducted via oral gavage using disposable polypropylene syringes with sterilized stainless steel gavage tubes. The food intake and water consumption were monitored daily, and BW was recorded weekly. The last dose on day 28 was given 1 hour prior to testing. […] All animals were adapted to this procedure daily 60 minutes after dosing for five days in a week during the treatment period. On 28th day of each respective treatment, all animals were subjected to a muscle endurance test. […] Animals were subjected to the treadmill test until exhaustion. Distance traveled (cm) was measured as a marker of exercise performance.

[5] = Clinical biochemical profiles of serum; format: in vivo, Swiss Albino mice; conditions: serum at end of 28-day treatment; mean ± SD, n = 8
Protocol: (§3) After one week of acclimation, the animals were randomly divided by body weight into five groups (n=8 per group in each test) for oral treatment once a day, at approximately same time each day (±1 hour), for 28 consecutive days: (1) vehicle control; (2) paraxanthine (3) L-theanine; […] The dose administered to the mice was calculated using US Food and Drug Administration for human equivalence doses (HED), assuming a human weight of 60 kg. […] Dosing was conducted via oral gavage using disposable polypropylene syringes with sterilized stainless steel gavage tubes. The food intake and water consumption were monitored daily, and BW was recorded weekly. The last dose on day 28 was given 1 hour prior to testing. All animals were euthanized by 95% CO2 after 28 days of following their assigned treatment. Blood was collected immediately after euthanization by the retro-orbital route and was immediately centrifuged at 1500×g for 10 min at 4° C. before having all serum transferred into cryogenic tubes and stored at -80° C. The liver, heart, gastrocnemius and soleus were excised and weighed. Collected serum was analyzed for clinical biochemical variables including aspartate aminotransaminase (AST), alanine aminotransaminase (ALT), alkaline phosphatase (ALP), uric acid (UA), creatinine, total cholesterol (TC), triglycerides (TG), high-density lipoproteins (HDL), and low-density lipoproteins (LDL) were measured using an auto analyzer (EM360, ERBA Diagnostics Mannheim GmbH, Mannheim, Germany). Nitric oxide was analyzed using standard ELISA assay kits (Lot No: E-BC-[…], Elabscience, Houston, Tex., USA).

male Swiss Albino mice [6] = assay: Muscle weight (gastrocnemius, soleus) after 28 days; format: in vivo; conditions: after 28 days of supplementation; vs vehicle control
Protocol: (§4) (2) paraxanthine (3) L-theanine; […] The dose administered to the mice was calculated using US Food and Drug Administration for human equivalence doses (HED), assuming a human weight of 60 kg. […] Dosing was conducted via oral gavage using disposable polypropylene syringes with sterilized stainless steel gavage tubes. The food intake and water consumption were monitored daily, and BW was recorded weekly. The last dose on day 28 was given 1 hour prior to testing. All animals were euthanized by 95% CO2 after 28 days of following their assigned treatment. Blood was collected immediately after euthanization by the retro-orbital route and was immediately centrifuged at 1500×g for 10 min at 4° C. before having all serum transferred into cryogenic tubes and stored at -80° C. The liver, heart, gastrocnemius and soleus were excised and weighed.

[7] = Liver and heart mass / gross pathology; format: in vivo, Swiss Albino mice; conditions: after 28 days of treatment; mean ± SD, n = 8
Protocol: as §4

Nitric oxide = assay: Serum nitric oxide ELISA; format: in vivo, Swiss Albino mice; conditions: serum after 28 days of treatment; for Nitric Oxide: mean ± SD, n = 8; for increase in nitric oxide levels over control: vs vehicle control
Protocol: as §3

feed consumption ([2]; Week 1)	feed consumption ([2]; Week 2)	feed consumption ([2]; Week 3)	feed consumption ([2]; Week 4)	ALP [5]	Creatinine [5]	Urea [5]	SMILES	body weight ([1]; Basal)	body weight ([1]; Week 1, oral once daily)	body weight ([1]; Week 2, oral once daily)	body weight ([1]; Week 3, oral once daily)	body weight ([1]; Week 4, oral once daily)	Baseline forelimb grip strength (male Swiss Albino mice [3])	increase in forelimb grip strength compared to control (male Swiss Albino mice [3])	Distance traveled on treadmill (male Swiss Albino mice [4])	increase in distance traveled during treadmill exercise compared to control (male Swiss Albino mice [4])	Baseline treadmill performance (distance) (male Swiss Albino mice [4])	ALT [5]	AST [5]	increase in gastrocnemius muscle mass compared to control (male Swiss Albino mice [6])	also measured
40.95 ± 0.60 grams	43.21 ± 1.25 grams	45.21 ± 1.15 grams	47.36 ± 1.08 grams	180.4 ± 5.42 U/L	0.93 ± 0.14 mg/dL	29.38 ± 1.60 mg/dL	NCCS(=O)(=O)O [Taurine, taurine]	22.50 ± 0.49 grams	24.08 ± 0.66 grams	26.99 ± 0.82 grams	29.06 ± 0.69 grams	32.34 ± 3.06 grams	90.94±0.85	failed to reach statistical significance	1,671±125 centimeters	did not increase treadmill performance	256.9±29.3 cm	25.00 ± 1.07 U/L	40.13 ± 2.36 U/L	no effect on muscle mass	increase in soleus muscle mass compared to control (male Swiss Albino mice [6]): no effect on muscle mass; Heart mass [7]: 190 ± 1.2 mg; Liver mass [7]: 1,834 ± 52 mg; Nitric Oxide (Nitric oxide): 7.56 ± 0.29 ng/mL
41.26 ± 0.86 grams	43.50 ± 0.66 grams	45.30 ± 0.48 grams	47.60 ± 0.51 grams	177.1 ± 3.68 U/L	0.89 ± 0.11 mg/dL	28.75 ± 1.28 mg/dL	CCNC(=O)CC[C@H](N)C(=O)O [L-Theanine, L-theanine]	22.41 ± 0.49 grams	24.20 ± 0.56 grams	26.76 ± 0.71 grams	29.00 ± 0.60 grams	31.60 ± 0.64 grams	87.90±2.63	12%	1,710±127 centimeters	13%	265.4±32.9 cm	24.25 ± 1.28 U/L	40.25 ± 2.44 U/L	5%	increase in soleus muscle mass compared to control (male Swiss Albino mice [6]): but not soleus muscle mass; Heart mass [7]: 189 ± 2.3 mg; Liver mass [7]: 1,866 ± 43 mg; Nitric Oxide (Nitric oxide): 10.23 ± 1.26 ng/mL; increase in nitric oxide levels over control (Nitric oxide): 57%
40.91 ± 0.55 grams	43.34 ± 0.40 grams	45.49 ± 0.40 grams	47.54 ± 0.42 grams	179.3 ± 3.99 U/L	0.90 ± 0.16 mg/dL	29.38 ± 1.41 mg/dL	C[N+](C)(C)CCOP(=O)([O-])OC[C@H](O)CO [Alpha-GPC, L-alpha glycerylphosphorylcholine]	22.50 ± 0.44 grams	24.10 ± 0.40 grams	27.05 ± 0.50 grams	29.14 ± 0.49 grams	31.68 ± 0.44 grams	91.00±0.40	8%	1,695±53.0 centimeters	did not increase treadmill performance	248.6±42.2 cm	23.63 ± 1.51 U/L	38.88 ± 2.10 U/L	no effect on muscle mass	increase in soleus muscle mass compared to control (male Swiss Albino mice [6]): no effect on muscle mass; Heart mass [7]: 189 ± 1.0 mg; Liver mass [7]: 1,869 ± 32 mg; Nitric Oxide (Nitric oxide): 9.21 ± 2.33 ng/mL; increase in nitric oxide levels over control (Nitric oxide): 42%
41.73 ± 046 grams	43.89 ± 0.68 grams	46.00 ± 0.59 grams	48.34 ± 0.68 grams	179.4 ± 2.56 U/L	0.86 ± 0.11 mg/dL	29.13 ± 0.99 mg/dL	Cn1c(=O)[nH]c2ncn(C)c2c1=O [Paraxanthine, 1,7-dimethylxanthine]	22.01 ± 0.40 grams	23.86 ± 0.55 grams	26.95 ± 0.41 grams	29.68 ± 0.45 grams	32.80 ± 0.48 grams	90.60±0.92	17%	2,100±133 centimeters	39%	255.3±30.7 cm	23.88 ± 0.99 U/L	39.50 ± 1.60 U/L	14%	increase in soleus muscle mass compared to control (male Swiss Albino mice [6]): 41%; Heart mass [7]: 190 ± 1.4 mg; Liver mass [7]: 1,870 ± 31 mg; Nitric Oxide (Nitric oxide): 13.06 ± 0.58 ng/mL; increase in nitric oxide levels over control (Nitric oxide): 101%

From patent US20230165868A1, “PARAXANTHINE-BASED COMPOSITIONS FOR ENHANCING MUSCLE FUNCTION, NITRIC OXIDE SIGNALING, AND/OR MUSCLE GLYCOGEN LEVELS” (Ingenious Ingredients, LP, priority 2021, published 2023)
